Read-outs that look alike come from different tables or passages of the source.

The subject of one data set is HL60 cells. Kind of data set: In vitro toxicity assay (MTS cell proliferation assay), HL60. The conditions noted are these: HL60, ~72 hours. The class given is cell-based, human. Here is the method: (§1) For the in vitro toxicity assay 30000 cells/well (final volume 100 μl) were seeded in a 96 well plate with a defined peptide dilution (by adding 1.5 μl of peptide solution to 500 μl of cell suspension) and incubated at 37° C. in 5% CO2.
(§2) After ˜72 hours, cell viability was measured using the “Cell Titer 96®Aqueous One Solution Cell Proliferation Assay” (Promega), performed according to the manufacturers instruction. Briefly: 20 μl of MTS solution were added to each well, the plate was then incubated at 37° C. for 2 hour. The read out of the assay is the absorbance at 490 nm.
(§3) The experiments were then extended to F9 and HL60 cells in the same manner.

The subject of the next data set is F9 teratocarcinoma cells. Put plainly: In vitro toxicity assay (MTS cell proliferation assay), F9. Particulars: F9, ~72 hours. The class given is cell-based, murine. Here is the method: as §1, §2, §3
Cem-CH2—SH cell killing ability was evaluated by cytotoxicity assays: one non-tumor cell line (human embryonic kidney cells, HEK 293T) and two tumor cell lines, murine F9 teratocarcinoma cells (F9) and human promyelocytic leukemia cells (HL60), were incubated over 3 days with different concentrations of non-modified cemadotin and the derivative Cem-CH2—SH (FIG. 20).

A further data set relates to HEK293T cells. Kind of data set: In vitro toxicity assay (MTS cell proliferation assay), HEK293T. The class given is cell-based, human. The conditions noted are these: ~72 hours. Here is the method: HEK293T cells were grown in RPMI (Gigbo-Invitrogen) medium supplemented with 10% FCS and antibiotics and maintained at 37° C. in 5% CO2.
as §1, §2
On the technique in general: Tetrazolium assays rely on reduction of a dye to a coloured formazan, in cell work by metabolically active cells.

For Cemadotin, the “cytotoxicity (IC50)” value with HL60 cells, in the data set with F9 teratocarcinoma cells and in the data set with HEK293T cells was “sub-nanomolar” each time.

Consider “BSA-fluorescein conjugate: BSA conjugated to carboxyfluorescein by the thiazolidine linker”, for which the “t1/2 thiazolidine (fluorescein release half-life)” value by setting is: (pH 6.6) 37 h; (pH 7.4) 44 h.

Values taken from patent publication US9198979B2, “Thiazolidine linker for the conjugation of drugs to antibodies” (Philogen S.P.A., priority 2010, dated 2015).
